Measured values reported in US20220054463A1, “METHODS OF TREATING ANEURYSMS” (University of Pittsburgh-of the Commonwealth System of …, priority 2020, published 2022).

Assays:
[1] = tested on: murine intracranial aneurysms; experiment: Mouse intracranial aneurysm model (aneurysm formation); type: in vivo, mouse (C57BL/6)
Description: Mouse Intracranial Aneurysm Model. Murine intracranial aneurysms were created in female 8-12 week-old C57BL/6 mice (Charles River Laboratories, Wilmington, Mass.) using a method described previously (Hosaka et al., Journal of neurointerventional surgery. 2014; 6:474-9). Briefly, the left common carotid artery and the right renal artery were ligated to induce hypertension. One week later, an Alzet micro-osmotic pump model 1004 (DURECT Corp, Cupertino, Calif.) was implanted subdermally to deliver Angiotensin II (Bachem AG, Switzerland) at 1000 ng/kg/min. 10 μL of 0.8% porcine elastase (Worthington Biochemical Corp, Lakewood, N.J.) in normal saline was injected into the right basal cistern using stereotactic coordinates: 1.2 mm rostral of bregma, 0.7 mm lateral of midline and 5.3 mm ventral of the dorsal aspect of the skull. The animals were fed a hypertensive diet with 8% NaCl and 0.12% BAPN (TEKLAD). Clopidogrel was administered at 1 mg/kg in normal saline via intraperitoneal injection every two days. Reparixin was administered at 10 mg/kg in normal saline via intraperitoneal injection every two days. PBS-treated animals received 10 μL injection of phosphate buffered saline subcutaneously every two days. […] Each Circle of Willis was examined by a blinded observer and aneurysm formation was recorded (yes/no). […]

[2] = tested on: cytokines (inflammatory profile); experiment: Cytokine arrays in aneurysm-induced cerebral vasculature; type: in vivo, mouse; details: aneurysmal mice, 2 versus 3 weeks; FIG. 5
Description: Mouse Intracranial Aneurysm Model. Murine intracranial aneurysms were created in female 8-12 week-old C57BL/6 mice (Charles River Laboratories, Wilmington, Mass.) using a method described previously (Hosaka et al., Journal of neurointerventional surgery. 2014; 6:474-9). Briefly, the left common carotid artery and the right renal artery were ligated to induce hypertension. One week later, an Alzet micro-osmotic pump model 1004 (DURECT Corp, Cupertino, Calif.) was implanted subdermally to deliver Angiotensin II (Bachem AG, Switzerland) at 1000 ng/kg/min. 10 μL of 0.8% porcine elastase (Worthington Biochemical Corp, Lakewood, N.J.) in normal saline was injected into the right basal cistern using stereotactic coordinates: 1.2 mm rostral of bregma, 0.7 mm lateral of midline and 5.3 mm ventral of the dorsal aspect of the skull. The animals were fed a hypertensive diet with 8% NaCl and 0.12% BAPN (TEKLAD). Clopidogrel was administered at 1 mg/kg in normal saline via intraperitoneal injection every two days. Reparixin was administered at 10 mg/kg in normal saline via intraperitoneal injection every two days. PBS-treated animals received 10 μL injection of phosphate buffered saline subcutaneously every two days. […] In addition, cytokines were analyzed in human cerebral aneurysm, superficial temporal artery, and peripheral intravenous blood specimens that were collected at the time of surgery.

| Compound | mice developing aneurysms ([1]; 10 mg/kg reparixin, PBS:DMSO treated control mice 59%, p=0.0163, FIG. 3B) | attenuation of inflammatory profile (temporal dynamics of 96 cytokines) [2] | mice developing aneurysms ([1]; 1 mg/kg clopidogrel, controls 59%, p<0.001, FIG. 3A) |
| --- | --- | --- | --- |
| CC(C)Cc1ccc([C@@H](C)C(=O)NS(C)(=O)=O)cc1 [reparixin] | 14% | robust anti-inflammatory effects |  |
| COC(=O)[C@H](c1ccccc1Cl)N1CCc2sccc2C1 [clopidogrel] |  | moderate response | 0% |
